Tests used:
[1] = tested on: 3T3-L1; experiment: Induction of adipogenesis in mouse 3T3L1 cells assessed as increase in triglyceride level at 30 uM on day 8 relative to control; assay type: functional
[2] = tested on: 3T3-L1; experiment: Induction of adipogenesis in mouse 3T3L1 cells assessed as increase in triglyceride level at 10 uM on day 8 relative to control; assay type: functional
[3] = tested on: 3T3-L1; experiment: Induction of adipogenesis in mouse 3T3L1 cells assessed as increase in triglyceride level at 3 uM on day 8 relative to control; assay type: functional
[4] = tested on: 3T3-L1; experiment: Cytotoxicity in mouse 3T3L1 cells assessed as reduction in triglyceride accumulation at 30 uM; assay type: cell-based; conditions: 3t3-l1, 30 µM
[5] = tested on: 3T3-L1; experiment: Induction of adipogenesis in mouse 3T3L1 cells assessed as increase in triglyceride level at 1 uM on day 8 relative to control; assay type: functional
[6] = tested on: 3T3-L1; experiment: Induction of adipogenesis in mouse 3T3L1 cells assessed as increase in triglyceride level at 0.3 uM on day 8 relative to control; assay type: functional
[7] = tested on: 3T3-L1; experiment: Induction of adiponectin protein secretion in mouse 3T3L1 cells at 3 uM on day 8 by ELISA relative to control; assay type: functional

O=c1cc(-c2ccc(O)c(O)c2)oc2cc(O)cc(O)c12 [LUTEOLIN]
Activity [1]: -41.3% | Activity [2]: -14.2% | Activity [3]: -6.4% | Activity [4]: Toxic | Activity [5]: 3.9%

COc1ccc(-c2cc(=O)c3c(OC)cc(OC)cc3o2)cc1 [TRIMETHYLAPIGENIN]
Activity [1]: -83% | Activity [2]: -17.2% | Activity [3]: 14.1% | Activity [4]: Toxic | Activity [5]: 16.7% | Activity [6]: 5.6%

O=C(/C=C/c1ccc(O)cc1)c1ccc(O)cc1O [ISOLIQUIRITIGENIN]
Activity [1]: -33.7% | Activity [2]: -0.7% | Activity [3]: 4% | Activity [5]: 2.7%

Oc1cc(O)c2c(c1)O[C@H](c1ccc(O)c(O)c1)[C@@H](O)C2 [CIANIDANOL]
Activity [1]: 11.9% | Activity [2]: 7.9% | Activity [3]: 6.4% | Activity [5]: -0.5%

COc1ccc2c(c1)OC(c1ccc(O)cc1)CC2=O (stereo not given)
Activity [1]: 13.5% | Activity [2]: 2.6% | Activity [3]: 2.2% | Activity [5]: -1.2%

O=c1c(O[C@@H]2O[C@H](CO)[C@@H](O)[C@H](O)[C@H]2O)c(-c2ccc(O)cc2)oc2cc(O)cc(O)c12 [ASTRAGALIN]
Activity [1]: 10.2% | Activity [2]: 8.8% | Activity [3]: 4.7% | Activity [5]: 2.1%

O=c1cc(-c2ccccc2)oc2cc(O)c(O)c(O)c12 [BAICALEIN]
Activity [1]: -37.2% | Activity [2]: -21.8% | Activity [3]: -7.7% | Activity [4]: Toxic | Activity [5]: -5.2%

Oc1cc(O)c2c(c1)O[C@H](c1ccc(O)c(O)c1)[C@H](O)C2 [(-)-EPICATECHIN]
Activity [1]: -0.6% | Activity [2]: -7.2% | Activity [3]: 6.1% | Activity [5]: 3.7%

O=c1c(O)c(-c2ccccc2)oc2ccccc12 [FLAVONOL]
Activity [1]: -31.6% | Activity [2]: -17.6% | Activity [3]: -10% | Activity [4]: Toxic | Activity [5]: -12.6%

O=c1c(O)c(-c2ccc(O)c(O)c2)oc2cc(O)cc(O)c12 [QUERCETIN]
Activity [1]: 3.9% | Activity [2]: 3% | Activity [3]: 5.8% | Activity [5]: 7%

O=C(/C=C/c1ccc(O)c(O)c1)c1ccc(O)cc1O [BUTEIN]
Activity [1]: -80.8% | Activity [2]: -7.3% | Activity [3]: 17.5% | Activity [4]: Toxic | Activity [5]: 14.8%

COc1ccc(-c2cc(=O)c3c(OC)c(OC)c(OC)c(OC)c3o2)cc1OC [NOBILETIN]
Activity [1]: -6.7% | Activity [2]: 10.7% | Activity [3]: 12.6% | Activity [5]: 15.3% | Activity [6]: 14.1%

Cc1c(C)c2c(c(C)c1O)CCC(C)(COc1ccc(CC3SC(=O)NC3=O)cc1)O2 (stereo not given) [TROGLITAZONE]
Activity [2]: 28.1% | Activity [3]: 34.6% | Activity [5]: 35.8% | Activity [7]: 166.4% | Activity [6]: 31.9%

COc1cc(O)c2c(=O)cc(-c3ccccc3)oc2c1 [TECHTOCHRYSIN]
Activity [1]: 17.5% | Activity [2]: 10.4% | Activity [3]: 10.7% | Activity [5]: 7.4%

COc1cc(OC)c2c(=O)cc(-c3ccccc3)oc2c1 [CHRYSIN DIMETHYL ETHER]
Activity [1]: -88.1% | Activity [2]: 6.3% | Activity [3]: 3.4% | Activity [4]: Toxic | Activity [5]: 7.5%

O=c1cc(-c2ccccc2)oc2cc(O)ccc12 [7-HYDROXYFLAVONE]
Activity [1]: 5.3% | Activity [2]: 17.1% | Activity [3]: 13.7% | Activity [5]: 12.2%

Oc1cc(O)c2c(c1)O[C@H](c1cc(O)c(O)c(O)c1)[C@H](O)C2 [EPIGALLOCATECHIN]
Activity [1]: -19.5% | Activity [2]: -10.2% | Activity [3]: -3.8% | Activity [5]: -9.5%

COc1cc(O)c2c(=O)c(OC)c(-c3ccc(OC)c(O)c3)oc2c1 [AYANIN]
Activity [1]: 0.4% | Activity [2]: 18.5% | Activity [3]: 16.3% | Activity [5]: 2.6%

O=c1cc(-c2ccc(O)c(O)c2)oc2ccccc12
Activity [1]: -21% | Activity [2]: 9.8% | Activity [3]: 13.8% | Activity [5]: 5.9%

O=C1C[C@@H](c2ccc(O)c(O)c2)Oc2cc(O)cc(O)c21 [ERIODICTYOL]
Activity [1]: -10.3% | Activity [2]: -10.3% | Activity [3]: -5% | Activity [5]: 1.6%

COc1ccc(-c2cc(=O)c3ccc(OC)cc3o2)cc1 [4,7-DIMETHOXYFLAVONE]
Activity [1]: 6.3% | Activity [2]: 4.3% | Activity [3]: 3.4% | Activity [5]: 1.2%

O=c1c(O)c(-c2cc(O)c(O)c(O)c2)oc2cc(O)cc(O)c12 [MYRICETIN]
Activity [1]: 5.6% | Activity [2]: -0.7% | Activity [3]: 2.7% | Activity [5]: 4.3%

COc1ccc(-c2cc(=O)c3c(O)cc(OC)cc3o2)cc1
Activity [1]: 6.8% | Activity [2]: 5.8% | Activity [3]: 12.2% | Activity [5]: 19% | Activity [6]: 7.7%

COc1c(O)cc(O)c2c(=O)cc(-c3ccccc3)oc12 [WOGONIN]
Activity [1]: 16.6% | Activity [2]: 19.2% | Activity [3]: 9.6% | Activity [5]: 7.8%

O=c1cc(-c2ccccc2)oc2ccccc12 [FLAVONE]
Activity [1]: -10.9% | Activity [2]: -5.2% | Activity [3]: -6.8% | Activity [5]: -2.6%

O=c1cc(-c2ccc(O)cc2)oc2cc(O)cc(O)c12 [APIGENIN]
Activity [1]: -7.7% | Activity [2]: 7% | Activity [3]: 4.9% | Activity [5]: 4.5%

COc1cc(O)c2c(=O)c(O)c(-c3ccc(OC)c(O)c3)oc2c1 [OMBUINE]
Activity [1]: 24.7% | Activity [2]: 4.6% | Activity [3]: 5.9% | Activity [5]: -2.1%

O=c1c(O)c(-c2ccc(O)c(O)c2)oc2cc(O)ccc12 [FISETIN]
Activity [1]: -2.7% | Activity [2]: -8.8% | Activity [3]: -2.4% | Activity [5]: 4.1%

O=c1c(O)c(-c2ccc(O)c(O)c2)oc2c(O)c(O)cc(O)c12 [GOSSYPETIN]
Activity [1]: -9.5% | Activity [2]: -6.7% | Activity [3]: -2.9% | Activity [5]: 17.5%

O=c1c(-c2ccc(O)cc2)coc2cc(O)ccc12 [DAIDZEIN]
Activity [1]: 13.4% | Activity [2]: 8.5% | Activity [3]: 6.5% | Activity [5]: 2%

COc1cc(OC)c2c(=O)cc(-c3ccc(OC)c(OC)c3)oc2c1 [TETRAMETHYLLUTEOLIN]
Activity [1]: -15.3% | Activity [2]: 7.4% | Activity [3]: 3.1% | Activity [5]: 2.6%

COc1cc(O)c2c(=O)c(OC)c(-c3ccccc3)oc2c1
Activity [1]: 17.7% | Activity [2]: 14.2% | Activity [3]: 13.7% | Activity [5]: 13.3%

O=c1cc(-c2ccc(O)cc2)oc2cc(O)ccc12
Activity [1]: -5.7% | Activity [2]: -1.5% | Activity [3]: -3.9% | Activity [5]: -8.1%

O=c1c(O[C@@H]2O[C@H](CO)[C@@H](O)[C@H](O)[C@H]2O)c(-c2ccc(O)c(O)c2)oc2cc(O)cc(O)c12 [ISOQUERCETIN]
Activity [1]: -2.4% | Activity [2]: -0.2% | Activity [3]: 0.1% | Activity [5]: -2.2%

COc1cc(O)c2c(=O)c(OC)c(-c3ccc(OC)c(OC)c3)oc2c1 [RETUSIN]
Activity [1]: 3.8% | Activity [2]: 21% | Activity [3]: 11.2% | Activity [5]: 3.8%

O=C1CC(c2ccccc2)Oc2ccccc21 (stereo not given) [FLAVANONE]
Activity [1]: 1% | Activity [2]: 2.5% | Activity [3]: 5.1% | Activity [5]: -1.9%

COc1cc(O)c2c(=O)c(O)c(-c3ccc(O)c(O)c3)oc2c1 [RHAMNETIN]
Activity [1]: -21.4% | Activity [2]: 2.4% | Activity [3]: 1.9% | Activity [5]: 19% | Activity [6]: 15.5%

COc1cc(OC)c2c(=O)c(OC)c(-c3ccccc3)oc2c1
Activity [1]: 6.6% | Activity [2]: 13.2% | Activity [3]: 10.4% | Activity [5]: 9%

COc1ccc(-c2coc3cc(O)cc(O)c3c2=O)cc1 [BIOCHANIN]
Activity [1]: -16.5% | Activity [2]: 1.2% | Activity [3]: 6.1% | Activity [5]: 2.6%

O=c1c(-c2ccc(O)cc2)coc2cc(O)cc(O)c12 [GENISTEIN]
Activity [1]: -19.2% | Activity [2]: -17.6% | Activity [3]: -4.3% | Activity [5]: -4.3%

O=c1cc(-c2ccc(O)c(O)c2)oc2cc(O)ccc12
Activity [1]: -1.7% | Activity [2]: 14.8% | Activity [3]: 9% | Activity [5]: 4.5%

From ChEMBL document CHEMBL1772964, “Structural requirements of flavonoids for the adipogenesis of 3T3-L1 cells” (Bioorg Med Chem, 2011)
